Measurements published in patent US20060111551A1, “Peptide having HTLV-1-specific CTL-inducing activity” (priority 2003, published 2006).

Assays:
[1] = test system: uncultured PBMC of recipient #37 and donor #36; assay: IFN-γ ELISPOT assay of uncultured PBMC; format: cell-based, human; settings: overnight incubation with 10 μg/ml peptide, mean±SD of triplicate
Excerpt: IFN-γ producing antigen-specific T cells were counted using IFN-γ-specific ELISPOT assays as previously described (J. Immunol. Methods 191, 131-142, 1996; J. Exp. Med. 186, 859-865, 1997). […] After 10-min reaction with BICP/NBT alkaline phosphatase substrate (SIGMA), colored spots on the dried membranes were counted using a KS-ELISPOT microscopy system (Carl Zeiss, Jena, Germany).
It was next investigated whether there are any qualitative or quantitative differences in HTLV-I-specific CTL responses among pre-HSCT #37, post-HSCT #37, and donor #36. To examine HTLV-I-specific CTL precursor cell number without experimental biases by in vitro culture, frozen stored PBMC were immediately subjected to ELISPOT assay for IFN-γ production. The results of CTL precursor in the uncultured PBMC of recipient #37 and donor #36 responding to ILT-#37 or Tax epitope are shown in Table 1. […] Values represent the mean±SD of triplicate assays. Further, the results of ELISPOT assay of IFN-γ are shown by spot forming cells (SFC) per 10^5 PBMC.

[2] = test system: CTL line of post-HSCT patient #37; settings: LCL-#36 cells pulsed with 10 mM peptide; effector-to-target ratio 10; FIG. 3
Procedure: Values represent the mean of specific lysis of triplicate assays.
Cytotoxic activities were measured by 6-hour ^51Cr-release assay at various effector-to-target (E/T) cell ratios as described previously (J. Natl. Cancer Inst. 93, 1775-1783, 2001; J. Virol. 76, 7010-7019, 2002). Specific cytotoxicity was calculated as ([experimental ^51Cr release−spontaneous ^51Cr release]/[maximum ^51Cr release−spontaneous ^51Cr release]×100%).

[3] = test system: CTL induced from post-HSCT patient R07; settings: HLA-A24+ TOK cells pulsed with peptide; effector-to-target ratio 8; 18 hours; FIG. 5
Procedure: Following 18 hours of incubation, IFN-γ in the supernatant was measured by ELISA assay. Values represent the mean of duplicate assays.
IFN-γ production by the effector cells was measured by ELISA (Human IFN-γ ELISA Kit; Endogen, Woburn, Mass.) following 18 hours of incubation with target cells at various E/T ratios in duplicate.
Subsequently, epitope mapping of these CTL was performed. […] The present inventors stained these cultured PBMCs with the tetramer of HLA-A*2402/Tax301-309.

Sequence: LLFEEYTNI [Tax307-315, synthetic oligopeptide of HTLV-I Tax]
- IFN-γ-producing SFC/10^5 PBMC, Donor #36 ([1]; PBMC of donor #36): 1 ± 0.6 SFC/10^5 PBMC
- IFN-γ-producing SFC/10^5 PBMC, Post-HSCT #37 ([1]; PBMC of post-HSCT patient #37): 2 ± 1 SFC/10^5 PBMC
- IFN-γ-producing SFC/10^5 PBMC, Pre-HSCT #37 ([1]; PBMC of pre-HSCT patient #37): 18 ± 2 SFC/10^5 PBMC

Sequence: MAHFPGFGQSLLFGYPVYVFGDCV [Tax1-24]
- killing of peptide-pulsed LCL-#36 cells by CTL line of post-HSCT patient #37 [2]: selectively killed

Sequence: SFHSLHLLFEEYTNI [Tax301-315]
- reaction with responder cells (IFN-γ production against peptide-pulsed TOK cells) [3]: selectively reacted
